Results: PubChem BioAssay AID330 (DTP/NCI, 2004)
“And” between values parts separate entries of the source, which are not always exact repeats. Equal entries are not always repeated. Inconclusive results and toxic doses are left out. The calls were made as follows: active = survival T/C of 150% or more; inactive = T/C below 125% in these data.

System: P388 leukemia ip, CD2F1 mice, survival T/C
Experiment: NCI In Vivo Anticancer Drug Screen. Data for tumor model P388 Leukemia (intraperitoneal) in CD2F1 (CDF1) mice
Conditions: endpoint: median survival time, higher = longer survival
Outline: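 Mice carrying the transplanted tumor received test compound or vehicle. Survival was recorded in each group, and the value is the treated-group measurement divided by that of the vehicle-treated control group.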

[1] = dose: 100.0 mg/kg/injection, schedule: Q04DX003 (ip), vehicle: saline
[2] = dose: 200.0 mg/kg/injection, schedule: Q04DX003 (ip), vehicle: saline
[3] = dose: 25.0 mg/kg/injection, schedule: Q01DX009 (ip), vehicle: Klucel (hydroxypropylcellulose) (HPC)
[4] = dose: 50.0 mg/kg/injection, schedule: Q01DX009 (ip), vehicle: Klucel (hydroxypropylcellulose) (HPC)
[5] = dose: 100.0 mg/kg/injection, schedule: Q01DX009 (ip), vehicle: Klucel (hydroxypropylcellulose) (HPC)
[6] = dose: 200.0 mg/kg/injection, schedule: Q01DX009 (ip), vehicle: Klucel (hydroxypropylcellulose) (HPC)
[7] = dose: 60.0 mg/kg/injection, schedule: Q01DX005 (ip), vehicle: saline
[8] = dose: 200.0 mg/kg/injection, schedule: Q01DX005 (ip), vehicle: saline
[9] = dose: 200.0 mg/kg/injection, schedule: Q01DX009 (ip), vehicle: saline
[10] = dose: 50.0 mg/kg/injection, schedule: Q01DX005 (ip), vehicle: saline
[11] = dose: 100.0 mg/kg/injection, schedule: Q01DX005 (ip), vehicle: saline
[12] = dose: 50.0 mg/kg/injection, schedule: Q01DX009 (ip), vehicle: saline with Tween-80
[13] = dose: 100.0 mg/kg/injection, schedule: Q01DX009 (ip), vehicle: saline with Tween-80
[14] = dose: 25.0 mg/kg/injection, schedule: Q01DX009 (ip), vehicle: saline
[15] = dose: 50.0 mg/kg/injection, schedule: Q01DX009 (ip), vehicle: saline
[16] = dose: 50.0 mg/kg/injection, schedule: Q01DX005 (ip), vehicle: saline with Tween-80
[17] = dose: 100.0 mg/kg/injection, schedule: Q01DX005 (ip), vehicle: saline with Tween-80
[18] = dose: 200.0 mg/kg/injection, schedule: Q01DX005 (ip), vehicle: saline with Tween-80

Measured: T/C

CC(=O)OC1C=CC(O)N(C(C)=O)C1SC1C2CC3CC(C2)CC1C3 (stereo not given)
inactive: [1] 101 % of control | [2] 101 % of control | dose: 400.0 mg/kg/injection, schedule: Q04DX003 (ip), vehicle: saline 108 % of control

C[N+]1(Cc2csc(-c3ccc(Cl)cc3)n2)CCOCC1
inactive: dose: 12.5 mg/kg/injection, schedule: Q01DX009 (ip), vehicle: Klucel (hydroxypropylcellulose) (HPC) 100 % of control and 106 % of control | [3] 113 % of control and 96 % of control | [4] 98 % of control and 108 % of control

C=CC=O
inactive: dose: 0.44 mg/kg/injection, schedule: Q01DX009 (ip), vehicle: saline 109 % of control | dose: 0.88 mg/kg/injection, schedule: Q01DX009 (ip), vehicle: saline 109 % of control | dose: 1.56 mg/kg/injection, schedule: Q01DX009 (ip), vehicle: saline 109 % of control

c1ccc(-c2nnc(-c3ccccn3)nn2)nc1
inactive: [3] 100 % of control | [4] 99 % of control | [5] 100 % of control | [6] 108 % of control | dose: 400.0 mg/kg/injection, schedule: Q01DX009 (ip), vehicle: Klucel (hydroxypropylcellulose) (HPC) 96 % of control

O=C(CCc1nc2ccccc2[nH]1)C1Cc2ccccc2C1=O (stereo not given)
inactive: dose: 60.0 mg/kg/injection, schedule: Q01DX005 (ip), vehicle: saline with Tween-80 103 % of control | dose: 120.0 mg/kg/injection, schedule: Q01DX005 (ip), vehicle: saline with Tween-80 104 % of control | dose: 240.0 mg/kg/injection, schedule: Q01DX005 (ip), vehicle: saline with Tween-80 103 % of control

Nc1ccn(C2OC(CO)C(O)C2O)c(=O)n1 (stereo not given)
inactive: dose: 100.0 mg/kg/injection, schedule: Q04DX002 (ip), vehicle: saline 120 % of control | [9] 100 % of control | [2] 100 % of control | dose: 400.0 mg/kg/injection, schedule: Q01DX009 (ip), vehicle: saline with Tween-80 100 % of control | dose: 400.0 mg/kg/injection, schedule: Q01DX009 (ip), vehicle: saline 99 % of control and 110 % of control | dose: 512.0 mg/kg/injection, schedule: Q01DX009 (ip), vehicle: saline 90 % of control | dose: 800.0 mg/kg/injection, schedule: Q01DX009 (ip), vehicle: saline with Tween-80 99 % of control | dose: 800.0 mg/kg/injection, schedule: Q01DX009 (ip), vehicle: saline 110 % of control and 91 % of control | dose: 1200.0 mg/kg/injection, schedule: Q01DX009 (ip), vehicle: saline with Tween-80 100 % of control | dose: 1600.0 mg/kg/injection, schedule: Q01DX009 (ip), vehicle: saline 91 % of control | dose: 1600.0 mg/kg/injection, schedule: Q04DX002 (ip), vehicle: saline 120 % of control | dose: 2400.0 mg/kg/injection, schedule: Q01DX009 (ip), vehicle: saline with Tween-80 90 % of control
active: dose: 2.0 mg/kg/injection, schedule: Q01DX009 (ip), vehicle: saline 160 % of control | dose: 10.0 mg/kg/injection, schedule: Q01DX005 (ip), vehicle: saline 160 % of control | [7] 190 % of control | dose: 128.0 mg/kg/injection, schedule: Q01DX009 (ip), vehicle: saline 170 % of control and 250 % of control | [8] 200 % of control | dose: 324.0 mg/kg/injection, schedule: Q04DX003 (ip), vehicle: saline 190 % of control | dose: 500.0 mg/kg/injection, schedule: Q04DX003 (ip), vehicle: saline 200 % of control | dose: 900.0 mg/kg/injection, schedule: Q04DX003 (ip), vehicle: saline 210 % of control

Cc1cc(N2CCCCC2)cc(=O)o1
inactive: [4] 104 % of control | [5] 102 % of control

CC(=O)/C(=C\c1ccc(C)cc1)C(=O)CCN(C)C
inactive: [10] 108 % of control | [11] 108 % of control | [8] 111 % of control

O=C(O)CCc1nc(-c2ccccc2-n2cccc2)no1
inactive: [12] 96 % of control | [13] 102 % of control

COc1cc(CSc2ccccc2)cc(OC)c1N
inactive: dose: 50.0 mg/kg/injection, schedule: Q01DX005 (ip), vehicle: Klucel (hydroxypropylcellulose) (HPC) 95 % of control | dose: 100.0 mg/kg/injection, schedule: Q01DX005 (ip), vehicle: Klucel (hydroxypropylcellulose) (HPC) 100 % of control | dose: 200.0 mg/kg/injection, schedule: Q01DX005 (ip), vehicle: Klucel (hydroxypropylcellulose) (HPC) 99 % of control

CONC(C)=O
inactive: [7] 98 % of control | dose: 120.0 mg/kg/injection, schedule: Q01DX005 (ip), vehicle: saline 100 % of control | dose: 240.0 mg/kg/injection, schedule: Q01DX005 (ip), vehicle: saline 100 % of control

CCNc1snc2c1c(=O)[nH]c(=O)n2Cc1ccccc1
inactive: dose: 12.5 mg/kg/injection, schedule: Q01DX009 (ip), vehicle: saline 86 % of control | [14] 90 % of control | [15] 98 % of control and 92 % of control

CCOC(=O)C1CC(=O)C1C(=O)OCC (stereo not given)
inactive: dose: 12.5 mg/kg/injection, schedule: Q01DX009 (ip), vehicle: saline with Tween-80 104 % of control | dose: 25.0 mg/kg/injection, schedule: Q01DX009 (ip), vehicle: saline with Tween-80 103 % of control | [12] 100 % of control | [13] 100 % of control | dose: 200.0 mg/kg/injection, schedule: Q01DX009 (ip), vehicle: saline with Tween-80 101 % of control

CN1C(=O)C(=N[O-])C(=O)N(C)C1=O.CN1C(=O)C(=N[O-])C(=O)N(C)C1=O.CN1C(=O)C(=N[O-])C(=O)N(C)C1=O.[Co+3]
inactive: [16] 100 % of control | [17] 119 % of control | [18] 107 % of control

NC1CCCCCC1
inactive: [10] 110 % of control | [11] 86 % of control

O=C1NC(=O)C23CCCCc4cccc(c42)C(=O)C13 (stereo not given)
inactive: dose: 25.0 mg/kg/injection, schedule: Q01DX005 (ip), vehicle: water 100 % of control | dose: 50.0 mg/kg/injection, schedule: Q01DX005 (ip), vehicle: water 99 % of control | dose: 100.0 mg/kg/injection, schedule: Q01DX005 (ip), vehicle: water 103 % of control | dose: 200.0 mg/kg/injection, schedule: Q01DX005 (ip), vehicle: water 100 % of control

CCOC(=O)CC(=O)c1ccc(Cl)cc1
inactive: [14] 100 % of control | [15] 100 % of control | dose: 100.0 mg/kg/injection, schedule: Q01DX009 (ip), vehicle: saline 104 % of control | [9] 101 % of control

CN(C)C(=S)/N=C1/SCS(=O)(=O)N1c1ccccc1
inactive: dose: 50.0 mg/kg/injection, schedule: Q04DX003 (ip), vehicle: saline with Tween-80 98 % of control | dose: 100.0 mg/kg/injection, schedule: Q04DX003 (ip), vehicle: saline with Tween-80 104 % of control | dose: 200.0 mg/kg/injection, schedule: Q04DX003 (ip), vehicle: saline with Tween-80 95 % of control

C=C1C(=O)O[C@H]2[C@H]1C[C@@H](O)[C@@]1(C)[C@@H](OC(=O)/C(C)=C/C)C[C@@H]3O[C@]3(C)[C@H]21
inactive: dose: 9.0 mg/kg/injection, schedule: Q01DX005 (ip), vehicle: Klucel + Tween-80 105 % of control | dose: 18.0 mg/kg/injection, schedule: Q01DX005 (ip), vehicle: Klucel + Tween-80 106 % of control | dose: 36.0 mg/kg/injection, schedule: Q01DX005 (ip), vehicle: Klucel + Tween-80 105 % of control | dose: 72.0 mg/kg/injection, schedule: Q01DX005 (ip), vehicle: Klucel + Tween-80 110 % of control

Cc1ccc2c(c1)C(=O)C(CN1CCCCC1)CO2 (stereo not given)
inactive: [1] 108 % of control | [2] 108 % of control

CC1(C)CSC(=S)N1
inactive: dose: 2.5 mg/kg/injection, schedule: Q01DX009 (ip), vehicle: saline sonified 109 % of control | dose: 5.0 mg/kg/injection, schedule: Q01DX009 (ip), vehicle: saline sonified 100 % of control | dose: 10.0 mg/kg/injection, schedule: Q01DX009 (ip), vehicle: saline sonified 100 % of control

C1Cc2c3c(c4c(c2C1)CCC4)CCC3
inactive: [3] 91 % of control | [4] 95 % of control | [5] 91 % of control | [6] 100 % of control

COC(=O)c1cc(=O)c2c(ccc3oc(=O)ccc32)[nH]1
inactive: [16] 88 % of control | [17] 88 % of control | [18] 90 % of control
